According to patent publication US5028733A, “Prostaglandins” (National Research Development Corporation, priority 1980, dated 1991):
Where “and” joins values, the source holds several entries; their conditions need not be identical. Identical values can stand only once.

Legend:
human platelets = target: T1, human platelets (Homo sapiens, UniProt P21731); assay: Human platelet system, antagonism of aggregation by 11,9-(epoxymethano) PGH2 (affinity constant KB); type: cell-based; settings: in words
T1 construct: Platelet-rich plasma is obtained from fresh, citrated human blood; endogenous in cells; host or cells: human platelets in platelet-rich plasma
T1 sequence (P21731 1-343): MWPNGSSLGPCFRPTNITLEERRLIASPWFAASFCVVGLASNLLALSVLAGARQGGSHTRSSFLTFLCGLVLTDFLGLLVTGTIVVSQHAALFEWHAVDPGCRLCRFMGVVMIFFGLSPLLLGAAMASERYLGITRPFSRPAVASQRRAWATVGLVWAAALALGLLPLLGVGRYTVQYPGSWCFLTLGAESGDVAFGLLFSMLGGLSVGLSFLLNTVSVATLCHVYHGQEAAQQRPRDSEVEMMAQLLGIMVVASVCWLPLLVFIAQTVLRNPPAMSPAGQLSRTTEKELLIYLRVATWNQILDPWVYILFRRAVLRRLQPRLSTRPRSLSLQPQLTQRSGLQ
Description: Platelet-rich plasma is obtained from fresh, citrated human blood. Addition of the 11,9-(epoxymethano) PGH2 (1×10^-7 to 5×10^-7 M) causes immediate aggregation recorded as an increase in light transmission (600 nm). In a second experiment the individual compounds are added five minutes previous to the addition of the PGH2 analogue. The dose of the PGH2 analogue added is then increased to a level which gives a similar response to that obtained in the absence of antagonist. The affinity constant, KB, for the compound is calculated according to the Gaddum - Schild Equation (based on Law of Mass Action).
(§1) [B]=molar concentration of compound

[1] = test system: platelet aggregation (11,9-(epoxymethano) PGH2); assay: In vivo inhibition of platelet aggregation in guinea pigs (11,9-(epoxymethano) PGH2); set-up: species or system male albino guinea pig
Description: The technique employed in this test was basically that of Smith and Freuler, Bibl. anat., 1973, 12, 229-234, which utilises the Technicon Autocounter and provides a completely automated system for counting platelets and cells. Blood is continuously sampled from a suitable artery and to avoid the use of an anticoagulant, a double cannula is used which enables 3.8%, w/v aqueous trisodium citrate to be pumped to the tip of the cannula and the citrated blood then to be removed at 0.1 ml/minute and diluted in the manifold where the red cells are lysed with 1% w/v ammonium oxalate/0.002% w/v saponin solution. The platelets are then counted optically and the count continuously recorded on precalibrated chart paper. In three experiments, each conducted on one male albino guinea pig ([…]) anaesthetised with a mixture of allyl barbituric acid and urethane, the guinea pig was given intravenously a dose of 50 μg/kg of collagen, followed 15 minutes later by 0.35 μg/kg of 11,9-(epoxymethane) PGH2 to give two reliable platelet aggregation responses for each material. […] (In the first experiment, only, the last administration of each compound was omitted).

rabbit aorta [2] = assay: Block of the contractile action of noradrenaline in the rabbit aorta strip test; type: cell-based; settings: in words
platelet = assay: Block of the aggregatory action of arachidonic acid on platelets; type: cell-based; settings: in words
rabbit aorta [3] = assay: Rabbit aorta strip, antagonism of contraction by 11,9-(epoxymethano) PGH2 (affinity constant KB); type: cell-based; settings: in words
Description: Spiral strips of thoracic aorta are suspended in Kreb's-Henseleit solution and aerated with 95% O2 /5% CO2 at 37° C. Tension changes are recorded with a Glass FTO3 force transducer. Initially, cumulative dose response curves to 11,9-(epoxymethano) PGH2 (2×10^-9, 1×10^-8, 5×10^-8 and 2.5×10^-7 M) are obtained. In a second experiment the individual compounds are added 30 minutes previous to the addition of the series of agonist doses. In the case of each compound, the affinity constant, KB, for the compound is calculated according to the Gaddum - Schild Equation (based on Law of Mass Action).
as §1

[4] = test system: bronchoconstriction (collagen); assay: Modified Konzett-Rossler test, inhibition of bronchoconstriction by collagen; type: in vivo, guinea pig; settings: 5 min after compound; 1 mg/kg i.v.; insufflation pressure
Description: (§2) In three experiments, each conducted on one male albino guinea pig ([…]) anaesthetised with a mixture of allyl barbituric acid and urethane, the guinea pig was given intravenously a dose of 50 μg/kg of collagen, followed 15 minutes later by 0.35 μg/kg of 11,9-(epoxymethane) PGH2 to give two reliable platelet aggregation responses for each material. After a further period of 10 minutes, the guinea pig was treated intravenously with a dose of 1 mg/kg of 5-endo-(6'-carboxyhex-2'Z-enyl)-6-exo{1'-[N-(phenylthiocarbamoyl)hydrazono]-ethyl}-bicyclo [2,2,1] heptane prepared as described in Example 2. Commencing 5 minutes after the administration of the bicyclo [2,2,1] heptane, the alternate treatments at 15 minute intervals with collagen and 11,9-(epoxymethano) PGH2 were repeated, the second treatment with the latter compound being followed after 15 minutes by a final treatment with collagen. (In the first experiment, only, the last administration of each compound was omitted).
(§3) The same three experiments on guinea pigs described under 1(b) are used to give a measure in a modified Konzett-Rossler test of the inhibition produced by 5-endo-(6'-carboxyhex-2'Z-enyl)-6-exo{1'[N-(phenylthiocarbamoyl)-hydrazono]ethyl}-bicyclo [2,2,1] heptane, prepared as described in Example 2, of the bronchoconstriction resulting from administration of the collagen and the PGH2 derivative. […]

[5] = test system: platelet aggregation (collagen); assay: In vivo inhibition of platelet aggregation in guinea pigs (collagen); set-up: species or system male albino guinea pig
Description: (§4) The technique employed in this test was basically that of Smith and Freuler, Bibl. anat., 1973, 12, 229-234, which utilises the Technicon Autocounter and provides a completely automated system for counting platelets and cells. Blood is continuously sampled from a suitable artery and to avoid the use of an anticoagulant, a double cannula is used which enables 3.8%, w/v aqueous trisodium citrate to be pumped to the tip of the cannula and the citrated blood then to be removed at 0.1 ml/minute and diluted in the manifold where the red cells are lysed with 1% w/v ammonium oxalate/0.002% w/v saponin solution. The platelets are then counted optically and the count continuously recorded on precalibrated chart paper.
as §2

[6] = test system: bronchoconstriction (PGH2 derivative); assay: Modified Konzett-Rossler test, inhibition of bronchoconstriction by 11,9-(epoxymethano) PGH2; type: in vivo, guinea pig; settings: 5 min after compound; 1 mg/kg i.v.; insufflation pressure
Description: as §2, §3

[7] = test system: platelet aggregation (collagen); assay: In vivo inhibition of platelet aggregation in rats (collagen); set-up: species or system male Sprague-Dawley rats; settings: for Percentage Fall in platelet count on administering collagen, After, mean: mean of 6 rats, compound 1 mg/kg i.v.
Description: as §4
Each of a group of six male Sprague-Dawley rats anaesthetised with pentabarbitone was injected intravenously with 40 μg/kg of collagen followed, 15 minutes later, by 80 μg/kg of collagen, which gives a dose-dependent and reproducible fall in platelet count. Ten minutes after the second injection of collagen, the rats were treated intravenously with a dose of 1 mg/kg of 5-endo-(6'-carboxyhex-2'Z-enyl)-6-exo-{1'-[N-(phenylthiocarbamoyl)-hydrazono]ethyl}-bicyclo [2,2,1] heptane prepared as described in Example 2. At 5 and 20 minutes after the administration of this compound a further 40 μg/kg and 80 μg/kg of collagen, respectively, were administered. The levels of platelet aggregation resulting from the administration of the collagen before and after the administration of the bicyclo [2,2,1] heptane were recorded continuously as indicated above.

[8] = PGH2 deriv. 0.35 μg/kg, average of experiments
[9] = collagen 50 μg/kg, average of experiments

antagonist in the platelet test (human platelets): antagonists in the platelet test
SMILES: CC(=NNC(=S)Nc1ccccc1)[C@H]1[C@@H]2CC[C@@H](C2)[C@@H]1C/C=C\CCCC(=O)O (relative stereo) [Example 2, 5-endo(6'-Carboxyhex-2'Z-enyl)-6-exo-{1'-[N-(phenylthiocarbamoyl)-hydrazono]-ethyl}-bicyclo [2,2,1] heptane]
Percentage Inhibition of platelet aggregation, 20 min ([1]; PGH2 deriv. 0.35 μg/kg, 20 min after 1 mg/kg i.v. compound, single animal): 75.7 Percentage and 85.2 Percentage and 83.7 Percentage
Percentage Inhibition of platelet aggregation, 50 min ([1]; PGH2 deriv. 0.35 μg/kg, 50 min after 1 mg/kg i.v. compound, single animal): 65.5 Percentage and 64.6 Percentage
Percentage Inhibition of platelet aggregation, 20 min, Average [1, 8]: 81.5 Percentage
Percentage Inhibition of platelet aggregation, 50 min, Average [1, 8]: 65.1 Percentage
platelet aggregation produced by 11,9-(epoxymethano) PGH2, in words ([1]; guinea pig, 1 mg/kg i.v.): caused an inhibition of the platelet aggregation
contractile action of noradrenaline (α-adrenoceptors) (rabbit aorta [2]): do not block the contractile action of noradrenaline
aggregatory action of arachidonic acid (platelet): block the aggregatory action of arachidonic acid
antagonist in the rabbit aorta strip test (rabbit aorta [3]): pure antagonists in the rabbit aorta strip test
inhibition of the bronchoconstricting effect of collagen [4]: complete inhibition
Percentage Inhibition of platelet aggregation, 5 min ([5]; collagen 50 μg/kg, 5 min after 1 mg/kg i.v. compound, single animal): 73.6 Percentage and 64.5 Percentage and 68.3 Percentage
Percentage Inhibition of platelet aggregation, 35 min ([5]; collagen 50 μg/kg, 35 min after 1 mg/kg i.v. compound, single animal): 67.3 Percentage and 64.4 Percentage and 56.1 Percentage
Percentage Inhibition of platelet aggregation, 65 min ([5]; collagen 50 μg/kg, 65 min after 1 mg/kg i.v. compound, single animal): 56.1 Percentage and 51.5 Percentage
Percentage Inhibition of platelet aggregation, 5 min, Average [5, 9]: 68.8 Percentage
Percentage Inhibition of platelet aggregation, 35 min, Average [5, 9]: 62.6 Percentage
Percentage Inhibition of platelet aggregation, 65 min, Average [5, 9]: 53.8 Percentage
platelet aggregation produced by collagen, in words ([5]; guinea pig, 1 mg/kg i.v.): caused an inhibition of the platelet aggregation
inhibition of the bronchoconstricting effect of the PGH2 derivative [6]: complete inhibition
average response to collagen ([7]; 40 μg/kg collagen, before vs after compound 1 mg/kg i.v.): significantly reduced
P, one tailed paired t-test, reduction of average response ([7]; 40 μg/kg collagen, t=2.25 (5Df)): < 0.05
Percentage Fall in platelet count on administering collagen, After, individual rat ([7]; collagen 40 μg/kg i.v., 5 min after 1 mg/kg i.v. compound): 14.0 Percentage and 13.3 Percentage and 14.6 Percentage and 25.0 Percentage and 18.5 Percentage and 19.4 Percentage
Percentage Fall in platelet count on administering collagen, After, mean ([7]; collagen 40 μg/kg): 17.47 Percentage
Percentage Fall in platelet count on administering collagen, After, individual rat ([7]; collagen 80 μg/kg i.v., 20 min after 1 mg/kg i.v. compound): 18.3 Percentage and 27.1 Percentage and 28.4 Percentage and 34.4 Percentage and 34.5 Percentage and 28.2 Percentage
Percentage Fall in platelet count on administering collagen, After, mean ([7]; collagen 80 μg/kg): 28.5 Percentage
